From patent US10105357B2, “Indication of antibiotic drugs for preparation of cancer inhibition pharmaceutical composition” (LAUNX BIOMEDICAL CO., LTD., priority 2014, dated 2018)
Structures can show the parent of a compound that is named as a salt. Where two headings read alike, the source gives them in different places.

How the values were obtained:
Format in all cases: cell-based, human
[1] = tested on: AGS (Gastric Adenocarcinoma); test: Cell viability analysis, gastric cancer AGS; conditions: for viability at 10 µM: Homo sapiens
[2] = tested on: MCF7 (Mammary Gland, Adenocarcinoma); test: Cell viability analysis, breast cancer MCF7; conditions: for viability at 10 µM: Homo sapiens, MCF7, 72 h
[3] = tested on: A549 (Lung Adenocarcinoma); test: Cell viability analysis, lung cancer A549; conditions: for viability at 10 µM: Homo sapiens, A549, 72 h
[4] = tested on: HeLa (Cervix Adenocarcinoma); test: Cell viability analysis, cervical cancer HeLa; conditions: for viability at 10 µM: Homo sapiens, HeLa
[5] = tested on: HepG2 (Hepatocellular Carcinoma); test: Cell viability analysis, hepatic cancer HepG2; conditions: for viability at 10 µM: Homo sapiens, HepG2, 72 h
[6] = tested on: LoVo (Colorectal Adenocarcinoma); test: Cell viability analysis, colon cancer LoVo; conditions: for viability at 10 µM: Homo sapiens, LoVo, read-out: cell viability (survival rate), LoVo, drug 10 μM, 72 hours, WST-1, OD450 nm
[7] = tested on: HI650 (Lung Adenocarcinoma); test: Cell viability analysis, lung cancer HI650; conditions: for viability at 10 µM: Homo sapiens, NCI-H1650, 72 h
[8] = tested on: PC3 (p53−) (Prostate Adenocarcinoma); test: Cell viability analysis, prostate cancer PC3; conditions: for viability at 10 µM: Homo sapiens
[9] = tested on: TSGH-8301 (Urinary Bladder Carcinoma); test: Cell viability analysis, bladder cancer TSGH-8301; conditions: for viability at 10 µM: Homo sapiens
[10] = tested on: A375 (Amelanotic Melanoma); test: Cell viability analysis, skin cancer A375; conditions: for viability at 10 µM: Homo sapiens, A-375, 72 h
[11] = tested on: MKN-45 (Gastric Adenocarcinoma); test: Cell viability analysis, gastric cancer MKN-45; conditions: for viability at 10 µM: Homo sapiens, MKN-45, 72 h
[12] = tested on: HL-60 (Acute Promyelocytic Leukemia); test: Cell viability analysis, leukemia HL-60; conditions: for viability at 10 µM: Homo sapiens, HL-60, 72 h
[13] = 72 h, read-out: cell viability (survival rate), AGS, drug 10 μM, 72 hours, WST-1, OD450 nm
[14] = read-out: cell viability (survival rate), MCF7, drug 10 μM, 72 hours, WST-1, OD450 nm
[15] = read-out: cell viability (survival rate), A549, drug 10 μM, 72 hours, WST-1, OD450 nm
[16] = 72 h, read-out: cell viability (survival rate), HeLa, drug 10 μM, 72 hours, WST-1, OD450 nm
[17] = read-out: cell viability (survival rate), HepG2, drug 10 μM, 72 hours, WST-1, OD450 nm
[18] = read-out: cell viability (survival rate), H1650, drug 10 μM, 72 hours, WST-1, OD450 nm
[19] = 72 h, read-out: cell viability (survival rate), PC3, drug 10 μM, 72 hours, WST-1, OD450 nm
[20] = 72 h, read-out: cell viability (survival rate), TSGH, drug 10 μM, 72 hours, WST-1, OD450 nm
[21] = read-out: cell viability (survival rate), A375, drug 10 μM, 72 hours, WST-1, OD450 nm
[22] = read-out: cell viability (survival rate), MKN-45, drug 10 μM, 72 hours, WST-1, OD450 nm
[23] = read-out: cell viability (survival rate), HL-60, drug 10 μM, 72 hours, WST-1, OD450 nm
[24] = 72 h, drug 10 μM, 72 hours, WST-1, OD450 nm, read-out: cell viability (survival rate), AGS
[25] = drug 10 μM, 72 hours, WST-1, OD450 nm, read-out: cell viability (survival rate), MCF7
[26] = drug 10 μM, 72 hours, WST-1, OD450 nm, read-out: cell viability (survival rate), A549
[27] = 72 h, drug 10 μM, 72 hours, WST-1, OD450 nm, read-out: cell viability (survival rate), HeLa
[28] = drug 10 μM, 72 hours, WST-1, OD450 nm, read-out: cell viability (survival rate), HepG2
[29] = drug 10 μM, 72 hours, WST-1, OD450 nm, read-out: cell viability (survival rate), H1650
[30] = 72 h, drug 10 μM, 72 hours, WST-1, OD450 nm, read-out: cell viability (survival rate), PC3
[31] = 72 h, drug 10 μM, 72 hours, WST-1, OD450 nm, read-out: cell viability (survival rate), TSGH
[32] = drug 10 μM, 72 hours, WST-1, OD450 nm, read-out: cell viability (survival rate), A375
[33] = drug 10 μM, 72 hours, WST-1, OD450 nm, read-out: cell viability (survival rate), MKN-45
[34] = drug 10 μM, 72 hours, WST-1, OD450 nm, read-out: cell viability (survival rate), HL-60
[35] = drug 10 μM, 72 hours, WST-1, OD450 nm

| Structure (SMILES) | viability at 10 µM [1, 13] [%] | viability at 10 µM [2, 14] [%] | viability at 10 µM [3, 15] [%] | viability at 10 µM [4, 16] [%] | viability at 10 µM [5, 17] [%] | viability at 10 µM ([6]; 72 h) [%] | viability at 10 µM [7, 18] [%] | viability at 10 µM [8, 19] [%] | viability at 10 µM [9, 20] [%] | viability at 10 µM [10, 21] [%] | viability at 10 µM [11, 22] [%] | viability at 10 µM [12, 23] [%] | viability at 10 µM [1, 24] [%] | viability at 10 µM [2, 25] [%] | viability at 10 µM [3, 26] [%] | viability at 10 µM [4, 27] [%] | viability at 10 µM [5, 28] [%] | viability at 10 µM [7, 29] [%] | viability at 10 µM [8, 30] [%] | viability at 10 µM [9, 31] [%] | other results |
| --- | --- | --- | --- | --- | --- | --- | --- | --- | --- | --- | --- | --- | --- | --- | --- | --- | --- | --- | --- | --- | --- |
| Clc1ccc(CSC(Cn2ccnc2)c2ccc(Cl)cc2Cl)cc1 (stereo not drawn) [Sulconazole Nitrate] | 83.1 | 44.4 | 50.7 | 62.1 | 88.2 | 73.6 | 63.4 | 65.7 | 55 | 44.9 | 53.2 | 64.1 |  |  |  |  |  |  |  |  |  |
| Nc1nc(NC2CC2)c2ncn([C@H]3C=C[C@@H](CO)C3)c2n1 [Abacavir sulfate] |  |  |  |  |  | 100 |  |  |  |  |  |  | 97.1 | 79.6 | 87 | 84.2 | 82.6 | 67 | 76 | 148 | viability at 10 µM [10, 32]: 57.2%; viability at 10 µM [11, 33]: 94.6%; viability at 10 µM [12, 34]: 108% |
| CN(C)[C@@H]1C(O)=C(C(N)=O)C(=O)[C@@]2(O)C(O)=C3C(=O)c4c(O)cccc4[C@@](C)(O)[C@H]3[C@H](O)[C@@H]12 [Oxytetracycline (Terramycin), Oxytetracycline] |  |  |  |  |  |  |  |  |  |  |  |  |  |  |  |  |  |  |  |  | cell viability (survival rate), AGS ([1]; human, 72 h, 10 µM): 61.9; cell viability (survival rate), MCF7 ([2]; human, 72 h, 10 µM): 38.9; cell viability (survival rate), A549 ([3]; human, 72 h, 10 µM): 42.3; cell viability (survival rate), HeLa ([4]; human, 72 h, 10 µM): 51.2; cell viability (survival rate), HepG2 ([5]; human, 72 h, 10 µM): 88.4; cell viability (survival rate), LoVo ([6]; human, 72 h, 10 µM): 86.6; cell viability (survival rate), H1650 ([7]; human, 72 h, 10 µM): 70.1; cell viability (survival rate), PC3 ([8]; human, 72 h, 10 µM): 70.8; cell viability (survival rate), TSGH ([9]; human, 72 h, 10 µM): 73.8; cell viability (survival rate), A375 ([10]; human, 72 h, 10 µM): 51.2; cell viability (survival rate), MKN-45 ([11]; human, 72 h, 10 µM): 56.7; cell viability (survival rate), HL-60 ([12]; human, 72 h, 10 µM): 97.9 |
| CN(CCOc1ccc(CC2SC(=O)NC2=O)cc1)c1ccccn1 (stereo not drawn) [Rosiglitazone maleate] |  |  |  |  |  | 93.5 |  |  |  |  |  |  | 113 | 114 | 79.1 | 83.3 | 95.1 | 87.7 | 121 | 85.2 | viability at 10 µM [10, 32]: 70.3%; viability at 10 µM [11, 33]: 73.7%; viability at 10 µM [12, 34]: 109% |
| CN(C/C=C/C#CC(C)(C)C)Cc1cccc2ccccc12.Cl [Terbinafine HCl (Lamisil)] |  |  |  |  |  |  |  |  |  |  |  |  |  |  |  |  |  |  |  |  | cell viability (survival rate), AGS [1, 35]: 90.6; cell viability (survival rate), MCF7 [2, 35]: 67.7; cell viability (survival rate), A549 [3, 35]: 52.3; cell viability (survival rate), HeLa [4, 35]: 75.4; cell viability (survival rate), HepG2 [5, 35]: 91.1; cell viability (survival rate), LoVo [6, 35]: 71.4; cell viability (survival rate), H1650 [7, 35]: 40.6; cell viability (survival rate), PC3 [8, 35]: 70.8; cell viability (survival rate), TSGH [9, 35]: 50.6; cell viability (survival rate), A375 [10, 35]: 92.5; cell viability (survival rate), MKN-45 [11, 35]: 81.8; cell viability (survival rate), HL-60 [12, 35]: 86.5 |
| Nc1ccn([C@@H]2CS[C@H](CO)O2)c(=O)n1 [Lamivudine (Epivir), Lamivudine] | 44.7 | 83.2 | 75.2 | 86.4 | 108 | 71.3 | 54.1 | 110 | 71.1 | 95.8 | 47.7 | 119 |  |  |  |  |  |  |  |  |  |
